Test results published in patent US8835380B2, “Therapeutic conjugates” (University College Cardiff Consultants Limited, priority 2010, dated 2014).

Columns and labels:
[1] = tested on: Acinetobacter baumannii 7789; assay: MIC broth microdilution; assay type: cell-based; details: amylase (100 IU/L) pre-incubation time 0
Protocol: (§1) Antimicrobial activity was measured using broth microdilution in a minimum inhibitory concentration (MIC) assay according to the Clinical and Laboratory Standards Institute (formerly NCCLS; 2003, Methods for Dilution Antimicrobial Susceptibility Tests for Bacteria That Grow Aerobically, Approved Standard—Sixth Edition. M7A6. Clinical and Laboratory Standards Institute. Wayne, Pa.). Test organisms were suspended in Mueller Hinton cation adjusted broth (100 μL, 1-5×10^4 CFU/mL) and incubated in 96-well microtitre plates in serial two-fold dilutions of the test compounds.
(§2) The antimicrobial activity of dextrin-colistin was also determined following incubation of the conjugate with amylase. Dextrin-colistin conjugates (3 mg/mL colistin eq.) were first incubated with amylase (100 IU/L for up to 48 h at 37° C. in PBS buffer (pH 8.2)).

[2] = tested on: Acinetobacter baumannii MDR ACB; assay: MIC broth microdilution; assay type: cell-based; details: amylase (100 IU/L) pre-incubation time 0
Protocol: as §1, §2

[3] = tested on: Acinetobacter baumannii; assay: MIC broth microdilution; assay type: cell-based; details: amylase (100 IU/L) pre-incubation time 0
Protocol: as §1, §2

[4] = tested on: Acinetobacter haemolyticus 1554; assay: MIC broth microdilution; assay type: cell-based; details: amylase (100 IU/L) pre-incubation time 0
Protocol: as §1, §2

[5] = tested on: Acinetobacter lwoffi 6056; assay: MIC broth microdilution; assay type: cell-based; details: amylase (100 IU/L) pre-incubation time 0
Protocol: as §1, §2

[6] = tested on: Acinetobacter lwoffi; assay: MIC broth microdilution; assay type: cell-based; details: amylase (100 IU/L) pre-incubation time 0
Protocol: as §1, §2

[7] = tested on: Escherichia coli 5702; assay: MIC broth microdilution; assay type: cell-based; details: amylase (100 IU/L) pre-incubation time 0
Protocol: as §1, §2

[8] = tested on: Escherichia coli 7273; assay: MIC broth microdilution; assay type: cell-based; details: amylase (100 IU/L) pre-incubation time 0
Protocol: as §1, §2

[9] = tested on: Escherichia coli AIM-1; assay: MIC broth microdilution; assay type: cell-based; details: amylase (100 IU/L) pre-incubation time 0
Protocol: as §1, §2

[10] = tested on: Klebsiella pneumoniae 5725; assay: MIC broth microdilution; assay type: cell-based; details: amylase (100 IU/L) pre-incubation time 0
Protocol: as §1, §2

[11] = tested on: Klebsiella pneumoniae IR25; assay: MIC broth microdilution; assay type: cell-based; details: amylase (100 IU/L) pre-incubation time 0
Protocol: as §1, §2

[12] = tested on: Klebsiella pneumoniae K3; assay: MIC broth microdilution; assay type: cell-based; details: amylase (100 IU/L) pre-incubation time 0
Protocol: as §1, §2

[13] = tested on: Klebsiella pneumoniae KP05 506; assay: MIC broth microdilution; assay type: cell-based; details: amylase (100 IU/L) pre-incubation time 0
Protocol: as §1, §2

[14] = tested on: Providencia stuartii IR57; assay: MIC broth microdilution; assay type: cell-based; details: amylase (100 IU/L) pre-incubation time 0
Protocol: as §1, §2

[15] = tested on: Pseudomonas aeruginosa MDR 301 PSA; assay: MIC broth microdilution; assay type: cell-based; details: amylase (100 IU/L) pre-incubation time 0
Protocol: as §1, §2

[16] = tested on: Pseudomonas aeruginosa PA01; assay: MIC broth microdilution; assay type: cell-based; details: amylase (100 IU/L) pre-incubation time 0
Protocol: as §1, §2

[17] = tested on: Pseudomonas aeruginosa R22 PSA; assay: MIC broth microdilution; assay type: cell-based; details: amylase (100 IU/L) pre-incubation time 0
Protocol: as §1, §2

[18] = tested on: Pseudomonas aeruginosa mucoid strain; assay: MIC broth microdilution (first mucoid strain, Table 3 r46); assay type: cell-based; details: amylase (100 IU/L) pre-incubation time 0
Protocol: as §1, §2

[19] = tested on: Pseudomonas aeruginosa mucoid strain; assay: MIC broth microdilution (second mucoid strain, Table 3 r49); assay type: cell-based; details: amylase (100 IU/L) pre-incubation time 0
Protocol: as §1, §2

[20] = target: T1, human amylase (Homo sapiens, UniProt P0DUB6); assay: Release of colistin from dextrin-colistin conjugates by amylase (FPLC); assay type: in vitro ADME; details: amylase 100 IU/L in PBS, 37° C., CMS: hydrolysis in PBS
T1 construct: α-amylase from human saliva; purchased Sigma-Aldrich (Poole, UK); host or cells: human saliva (natural source)
Protocol: To compare the rate of amylase degradation of dextrin, succinoylated dextrin and dextrin-colistin conjugates, solutions (3 mg/mL in PBS, pH 7.4) of each sample was prepared containing amylase (100 IU/L in PBS) and incubated at 37° C. for up to 48 h. At various time points, samples (300 μL) were taken, immediately snap frozen in liquid nitrogen to stop the reaction and then stored at −20° C. until analysis by GPC and FPLC (conjugates only). Prior to analysis, samples were placed in a water bath (100° C.) for 5 min to denature the enzyme activity of the amylase and stop polymer degradation. The supernatant was then analysed by GPC to determine the change in molecular weight over time and by FPLC to determine the change in free colistin over time.

[21] = tested on: LPS from E. coli; assay: LAL assay (endotoxin neutralisation); assay type: biochemical; details: 4 μg/mL
Protocol: A colorimetric assay technique was used in which the clotting reaction of Limulus amoebocyte lysate (LAL) in the presence of LPS was measured spectrophotometrically at 540 nm.
LPS was dissolved in pyrogen free water (0-50 ng/mL) containing colistin, CMS, dextrin-colistin or unmasked dextrin-colistin (4 μg/mL, 100 μL) in pyrogen-free vials. Control samples contained only LPS dissolved in pyrogen-free water. Solutions were mixed well and incubated at 37° C. for 3 h. Reconstituted LAL (100 μL) was then added and the solution mixed well before incubation at 37° C. for 45 min. Next, reconstituted substrate solution (100 μL) was added to each vial, mixed well and incubated for a further 6 min. Finally, the reaction was terminated by addition of reconstituted stop solution and colour stabilisers. Samples (100 μL) were pipetted into the wells of a 96-well microtitre plate (6 wells per sample) and absorption was read spectrophotometrically at 540 nm. The concentration of LPS producing 50% maximal absorption was taken as the ED50.
To study the effect of amylase on the activity of dextrin-colistin conjugates, dextrin-colistin conjugates (0.5 mg/mL) were first incubated with amylase (100 IU/L) for 6 and 24 h at 37° C. in PBS (pH 8.2). The endotoxin binding activity assays were then followed as described above.

[22] = tested on: HK2 kidney cells; assay: MTT assay, cell viability; assay type: cell-based, human; details: 72 h incubation
Protocol: The MTT assay was used to assess cell viability (72 h incubation) in a human kidney (HK2) cell line. Cells were seeded into sterile 96-well microtitre plates (1×10^5 cells/mL) in 0.1 mL/well of media (DMEM) containing FCS (10% v/v). They were allowed to adhere for 24 h. The medium was then removed and test compounds (0.2 μm filter-sterilized) were added to the cells. To study the effect of colistin, CMS, dextrin-colistin conjugate and succinoylated dextrin (8,000 g/mol, 1.1 mol % succinoylation) on cell viability, complete media (+FCS) was supplemented with a range of concentrations of each. To study the effect of ‘unmasked’ dextrin-colistin on cell viability, complete media (+FCS) was supplemented with a range of concentrations of conjugate and amylase (100 IU/L). After a further 67 h incubation, MTT (20 μL of a 5 mg/mL solution in PBS) was added to each well and the cells were incubated for a further 5 h. The medium was then removed and the precipitated formazan crystals solubilized by addition of optical grade DMSO (100 μL) over 30 min. Absorbance was measured at 540 nm using a microtitre plate reader. Cell viability was expressed as a percentage of the viability of untreated control cells. The IC50 values were expressed as mean±SEM (n=18).

T1 sequence (P0DUB6 16-511): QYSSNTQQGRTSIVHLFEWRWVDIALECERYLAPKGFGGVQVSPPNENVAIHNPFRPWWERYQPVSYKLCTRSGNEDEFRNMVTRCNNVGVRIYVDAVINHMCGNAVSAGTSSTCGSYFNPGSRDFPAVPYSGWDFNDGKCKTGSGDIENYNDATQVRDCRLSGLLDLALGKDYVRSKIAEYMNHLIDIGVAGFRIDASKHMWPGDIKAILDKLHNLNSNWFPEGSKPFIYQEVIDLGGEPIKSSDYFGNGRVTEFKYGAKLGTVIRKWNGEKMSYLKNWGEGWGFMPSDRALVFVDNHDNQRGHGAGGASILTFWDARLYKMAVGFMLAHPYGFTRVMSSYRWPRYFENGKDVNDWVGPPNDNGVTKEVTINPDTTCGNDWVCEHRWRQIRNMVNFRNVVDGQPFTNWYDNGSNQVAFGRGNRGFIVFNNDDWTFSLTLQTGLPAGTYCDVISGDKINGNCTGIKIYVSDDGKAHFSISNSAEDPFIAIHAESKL

| Substance | MIC [1] | MIC [2] | MIC [3] | MIC [4] | MIC [5] | MIC [6] | MIC [7] | MIC [8] | MIC [9] | MIC [10] | MIC [11] | MIC [12] | MIC [13] | MIC [14] | MIC [15] | MIC [16] | MIC [17] | MIC [18] | MIC [19] | % colistin release after 24 h [20] [%] | other results |
| --- | --- | --- | --- | --- | --- | --- | --- | --- | --- | --- | --- | --- | --- | --- | --- | --- | --- | --- | --- | --- | --- |
| colistin | 0.03 | 0.125 | 0.03 | 4 | 0.03 | 0.25 | 0.03 | <0.5 | 0.01 | 0.03 | 0.03 | 0.06 | 0.125 | 0.01 | 0.125 | 0.06 | 0.03 | 0.01 | 0.008 | 100 | inhibition of cleavage of chromogenic substrate by E. coli LPS [21]: able to inhibit; LPS required to trigger Limulus amoebocyte lysate gelation compared to LPS in water ([21]; preincubated 3 h at 37° C.): 20 fold; IC50 (cell viability) [22]: 20 µg/mL |
| colistin methanesulfonate [CMS] | 2 | 4 | 4 | 8 | 2 | 4 | 1 | 2 | 0.25 | 1 | 2 | 2 | 2 | 1 | 1 | 1 | 0.5 | 1 | 0.25 | 23.6 | IC50 (cell viability) [22]: 25 µg/mL |
